We go through five compounds from paper PMC5450702 (Toxins, 2017).

One data set deals with mice. Description: CFA-induced inflammation and thermal hyperalgesia. It counts as in vivo, CD-1 mice. The method, then: All experiments were approved by the Animal Care and Use Committee of the Branch of the IBCh RAS (Pushchino, Russia) protocol number No. 492/16. Adult male CD-1 mice (weight 20–30 g; obtained from the Animal Breeding Facility Branch of Shemyakin-Ovchinnikov Institute of Bioorganic Chemistry, Russian Academy of Sciences, Pushchino, Russia Federation) were housed at room temperature (23 ± 2 °C) and subjected to a 12 h light–dark cycle with food and water available ad libitum. […] The significance of the data was determined by Analysis of variance (ANOVA) followed by Turkey’s post-hoc test. Data are presented as mean ± SEM.
Paw inflammation and thermal hyperalgesia was induced using Complete Freund’s Adjuvant (CFA) suspended in an oil/saline (1:1) emulsion. The mice were injected with 20 µL of CFA emulsion into the plantar surface of the left hind-paw. The control mice were injected with 20 µL of saline. […] Paw withdrawal latency was recorded using a hot plate (53 °C) 30 min after peptide or saline administration. […] Percent inflammation was calculated according to the formula ((Postdose paw diameter − Naive paw diameter)/(Predose paw diameter − Naive paw diameter)) × 100.

The subject of a further data set is TRPA1. The settings on record: ref [53]; cited from earlier work. The text has this: Most probably, this peptide can potentiate and defunctionalize the TRPA1 receptor on sensory neurons or desensitize neurons. […] In our study, defunctionalization of ...
Data set [1] deals with myocardial voltage gated Na^+ channel. Also noted: method as in PMID 1686683. The settings on record: ref [41]; cited from earlier work.
For data set [2] the following is noted: ref [45], cited from earlier work. The method, then: The capability of defensins to interact with microbial membranes is determined by the shape of the molecules, the ratio of polar to hydrophobic residues on the peptide surface, and the total positive charge given through basic amino acids rather than by their individual primary structures. Usually, increasing the overall positive charge will increase the antimicrobial activity of AMPs due to the selective action of AMPs on negatively charged bacterial membranes. Indeed, the AMP cryptidin-4 (Crp4, charge +8) more effectively associates with negatively charged biological membranes than ne ...

For another data set, the system named is sodium channels. To be noted: ref [11]; cited from earlier work.
The conditions of data set [3]: ref [11]; cited from earlier work.

In the case of `CCC(=N\O)/C(C)=C/c1ccc(F)cc1` [A-967079], the “effect of TRPA1 antagonist on Ueq 12-1 action, CFA-induced inflammation” value in the data set on mice (A-967079 20 mg/kg p.o. 1 h before Ueq 12-1 0.2 mg/kg i.v.) is listed as “completely blocked the effect of peptide Ueq 12-1”. Further, the “effect of TRPA1 antagonist on Ueq 12-1 action, thermal hyperalgesia” value with mice (A-967079 20 mg/kg p.o., Ueq 12-1 0.2 mg/kg i.v., n = 7–8) is listed as “completely blocked the effect of peptide Ueq 12-1”. For `C=C1C(=O)O[C@H]2[C@H]1CC/C(C)=C/CC[C@@]1(C)O[C@@H]21` [parthenolide], in the data set with TRPA1, the TRPA1 activity result was “partial agonist of TRPA1”. Take “Anthopleurin-A: 49-residue polypeptide from Anthopleura xanthogrammica”: the “effect on myocardial voltage gated Na^+ channel” value in data set [1] is on record as “delayed inactivation”. With “cryptidin-4 (Crp4: mouse alpha-defensin 4 antimicrobial peptide (LRGLLCYCRKGHCKRGERVRGTCGIRFLYCCPRR; UniProt P28311 59-92, looked up)”, the charge entry in data set [2] is reported as “+8”. In addition, in data set [2] (versus neutral membranes), the association with membranes result is on record as “more effectively associates with negatively charged biological membranes than neutral membranes”.

On to neurotoxin 2 (ATX-II), for which the “effect on sodium channels gating” value with sodium channels is recorded as “affect sodium channels gating”. Further, in data set [3], the antimicrobial properties entry is “have antimicrobial properties”.
